The target of one experiment is T1, PLCδ-PH (PLCδ PH domain) (Homo sapiens, UniProt P51178).
T1 sequence (P51178 21-130 limits assumed): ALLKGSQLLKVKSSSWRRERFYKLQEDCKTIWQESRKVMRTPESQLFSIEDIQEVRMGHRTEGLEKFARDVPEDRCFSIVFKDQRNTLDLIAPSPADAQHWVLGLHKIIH
In words: SPR equilibrium binding of PLCδ-PH to phosphoinositide-containing LUVs. On the procedure: With respect to FIG. […] The proteins were incubated with a given concentration of IP3 for 5 minutes before injecting into the SPR instrument. Kinetic SPR measurements were performed in 20 mM Tris-HCL, pH 7.4, containing 0.16 KCl. […] A lower concentration of DAN-eENTH was used than that of PLCδ PH because the former has much higher affinity that the latter.
LUVs were prepared by extrusion using a 100 nm-pore membrane. GUVs were prepared by electroformation. The lipid mixture were prepared in chloroform/methanol (3:1) at a total concentration of 0.4 mg/ml, then the lipid solution was spread onto the indium-tin oxide electrode surface and the lipid was dried under vacuum to form a uniform lipid film. Vesicles were grown in a sucrose solution (350 mM) while an electric field (3V, 20 Hz frequency) was applied for 5 hour at room temperature. After 1 to […] of sucrose-loaded GUV solution was added into a well glued onto a coverslip that was placed on the microscope stage. The well contained […] of 20 mM Tris-HCl buffer, pH 7.4, with 0.16 M KCl solution. The diameter of GUVs ranged from 5 to 30 μm.

Experiment [1] has as its target T2, DAN-eENTH: epsin 1 ENTH domain variant M10C/C96A/S4W, SEQ ID NO: 2, labeled with DAN at C10 (Homo sapiens, UniProt Q9Y6I3, C96A/M10C/S4W).
T2 construct: The Epsin1 ENTH domain (1-158 amino acids) was subcloned; GST (C, cleaved yes); made in house; host or cells: E. coli BL21 RIL codon plus
T2 sequence (Q9Y6I3 1-158 S4W/M10C/C96A): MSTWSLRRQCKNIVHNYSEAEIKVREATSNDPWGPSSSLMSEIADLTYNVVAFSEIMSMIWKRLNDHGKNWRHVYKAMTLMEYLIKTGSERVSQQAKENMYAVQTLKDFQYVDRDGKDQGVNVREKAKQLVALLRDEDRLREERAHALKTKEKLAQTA
In words: SPR equilibrium binding of DAN-eENTH to phosphoinositide-containing LUVs. Particulars: SPR. From the text: Provided herein is an ENTH domain of epsin1, which is linked to 2-dimethylamino-6-acyl-naphthalene (DAN). The ENTH domain contains 3 mutations, which are substitutions: M10C, C96A, and S4W. See SEQ ID NO:2. This DAN-eENTH (M10C, C96A, S4W) is an exceptional, high-affinity phosphatidylinositol-4,5-bisphosphate (PtdIns(4,5)P2)-binding protein.
(§1) The ENTH domain was engineered to introduce a single labeling site (M10C) on the membrane binding surface while removing an endogenous Cys (C96A). We also performed the S4W mutation to suppress its residual affinity for another lipid, phosphatidylinositol-3,4,5-trisphosphate (PtdIns(3,4,5)P3) (PtdIns(4,5)P2/PtdIns(3,4,5)P3=4 for wild type and >10 for the mutant) and to enhance the overall affinity for PtdIns(4,5)P2-containing membranes (ca. 4-fold) (Table 1).
(§2) With respect to FIG. 1, an L1 sensor chip was coated with POPC/POPS/PtdIns(4,5)P2 (77:20:3) LUVs. The proteins were incubated with a given concentration of IP3 for 5 minutes before injecting into the SPR instrument. Kinetic SPR measurements were performed in 20 mM Tris-HCL, pH 7.4, containing 0.16 KCl. […] A lower concentration of DAN-eENTH was used than that of PLCδ PH because the former has much higher affinity that the latter.
(§3) All mutations (S4W, M10C, and C96A) were performed by polymerase chain reaction mutagenesis and verified by DNA sequencing. eENTH may comprise the following sequence:
(§4) E. coli BL21 RIL codon plus (Stratagene) cells were used for protein expression. Cells were grown in Luria broth media containing 100 μg/ml of ampicillin at 37° C. 0.1 mM of Isopropyl β-D-1-thiogalactopyranoside was added to induce over-expression of recombinant proteins when the OD600 reached 0.5-0.8 and cells were grown for additional 6 to 10 hours at 25° C. Cells were harvested by centrifugation and cell pellets were resuspended in 50 mM Tris-HCl buffer (pH 7.4) containing 160 mM KCl, 1 mM phenylmethanesulphonylfluoride, and 5 mM of dithiothreitol (DTT). Cells were lysed by sonication and the lysate was collected by centrifugation at 4° C. The GST-affinity resin (GenScript) for GST-tagged proteins or nickel-nitrilotriacetic acid resin (Qiagen, Valencia, Calif.) for His6-tagged proteins was added into the cell lysate and the mixture was gently shaken for 30 minutes at 4° C. The mixture was applied to a column and the column was washed once with 50 mM Tris-HCl buffer (pH 7.4) containing 160 mM KCl and 5 mM of DTT to reduce thiol group, and washed several times with the same buffer without DTT to remove DTT. For DAN labeling, 100 μg of acrylodan was added to the column at this stage and incubated 16 hours at 4° C. The excess acrylodan was removed by washing the column with the buffer several times. Thrombin (Invitrogen) was added to column to remove the GST tag and the mixture was incubated at 4° C. for 10 hours. The labeled protein was eluted from the column by and the collected fractions were applied to ion exchange column. Purity and the concentration of the recombinant proteins were determined by sodium dodecylsulfate-polyacrylamide gel electrophoresis and bicinchoninic acid assay, respectively. The DAN labeling yield of eENTH, which was calculated as the molar ratio of DAN (determined spectrophotometrically at 391 nm using its extinction coefficient of 20,000 cm^−1 M^−1) to protein, was typically 60-70%.
LUVs were prepared by extrusion using a 100 nm-pore membrane. GUVs were prepared by electroformation. […]

The target in experiment [2] is T3, epsin 1 ENTH domain, wild type, SEQ ID NO: 1 (Homo sapiens, UniProt Q9Y6I3).
T3 construct: The Epsin1 ENTH domain (1-158 amino acids) was subcloned; GST (C, cleaved yes); made in house; host or cells: E. coli BL21 RIL codon plus
T3 sequence (Q9Y6I3 1-158): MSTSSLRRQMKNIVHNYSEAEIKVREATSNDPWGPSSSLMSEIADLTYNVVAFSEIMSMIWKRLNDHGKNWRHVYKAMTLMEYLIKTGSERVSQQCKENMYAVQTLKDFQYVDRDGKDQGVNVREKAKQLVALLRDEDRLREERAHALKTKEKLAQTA
In words: SPR equilibrium binding of epsin1 ENTH domain (wild type) to phosphoinositide-containing LUVs. The conditions noted are these: SPR.
Source text: as §1, §2
The Epsin1 ENTH domain (1-158 amino acids) was subcloned into the pGEX4T-1 vector and expressed as a […] glutathione S-transferase (GST)-tagged protein. The ENTH domain amino acid sequence is as follows:
as §4, with “Thrombin (Invitrogen) was added to column to remove the GST tag and the mixture was incubated at 4° C. for 10 hours. The labeled protein was eluted from the column by and the collected fractions were applied to ion exchange column.” left out, “60-70%. […]” for “60-70%.”

The target of experiment [3] is T4, epsin 1 ENTH domain (SEQ ID NO: 1) variant C96A (Homo sapiens, UniProt Q9Y6I3, C96A).
T4 construct: The Epsin1 ENTH domain (1-158 amino acids) was subcloned; GST (C, cleaved yes); made in house; host or cells: E. coli BL21 RIL codon plus
T4 sequence (Q9Y6I3 1-158 C96A): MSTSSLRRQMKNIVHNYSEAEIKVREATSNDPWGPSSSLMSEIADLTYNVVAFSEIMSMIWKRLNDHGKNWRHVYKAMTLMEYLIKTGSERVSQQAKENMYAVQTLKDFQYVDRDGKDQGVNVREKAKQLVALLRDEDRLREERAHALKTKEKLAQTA
In words: SPR equilibrium binding of epsin1 ENTH C96A to phosphoinositide-containing LUVs.
Source text: as §1, §2, §3
E. coli BL21 RIL codon plus (Stratagene) cells were used for protein expression. Cells were grown in Luria broth media containing 100 μg/ml of ampicillin at 37° C. 0.1 mM of Isopropyl β-D-1-thiogalactopyranoside was added to induce over-expression of recombinant proteins when the OD600 reached 0.5-0.8 and cells were grown for additional 6 to 10 hours at 25° C. Cells were harvested by centrifugation and cell pellets were resuspended in 50 mM Tris-HCl buffer (pH 7.4) containing 160 mM KCl, 1 mM phenylmethanesulphonylfluoride, and 5 mM of dithiothreitol (DTT). Cells were lysed by sonication and the lysate was collected by centrifugation at 4° C. […] Purity and the concentration of the recombinant proteins were determined by sodium dodecylsulfate-polyacrylamide gel electrophoresis and bicinchoninic acid assay, respectively. The DAN labeling yield of eENTH, which was calculated as the molar ratio of DAN (determined spectrophotometrically at 391 nm using its extinction coefficient of 20,000 cm^−1 M^−1) to protein, was typically 60-70%. […]

Experiment [4] deals with NIH 3T3 cells. In words: Change of plasma membrane [PtdIns(4,5)P2]s on stimulation, quantified with DAN-eENTH. It is filed as cell-based. The conditions noted are these: 1 μM insulin. On the procedure:
(§5) DAN-eENTH was delivered into NIH 3T3 cells by microinjection for live cell imaging and determined cellular [PtdIns(4,5)P2] by the ratiometric analysis. The green channel (FIG. 10a) representing both PtdIns(4,5)P2-bound and free DAN-eENTH illustrates that the sensor is successfully loaded into cells and randomly distributed in the cytosol, the nucleus, and the plasma membrane. […] When [PtdIns(4,5)P2]s in the PM was determined in a time-dependent manner by either single-channel 9FB) or ratiometric (FB/FG) analysis using the calibration curve (FIG. 2c or 2d), dramatic local heterogeneity of [PtdIns(4,5)P2]s was clearly visible at a given time ((FIG. 9c). […] In FIG. 7, the different angles represent different locations in the plasma membrane. […] That is, PtdIns(4,5)P2 can be locally enriched, but only transiently, in the quiescent cells. […] Also, the change in [PtdIns(4,5)P2]s was monitored in response to physiological stimuli, ATP and insulin. […]
(§6) NIH 3T3 cells were seeded into 8-well plates and grown at 37° C. in a humidified atmosphere of 95% air and 5% CO2 in Dulbecco's modified Eagle's medium (DMEM) (Invitrogen) supplemented with 10% (v/v) fatal bovine serum (Invitrogen). […] Thus, the cellular [PtdIns(4,5)P2] was determined from the observed (FB/FG) values using the in vitro calibration curve determined using POPC/POPS/PtdIns(4,5)P2 GUVs.

The nature of experiment [5]: Equilibrium SPR binding to other phosphoinositide vesicles. Particulars: POPC/POPS/phosphoinositide (77:20:3) vesicles; no significant SPR response signal with injection of 1 μM protein.
Experiment [6] deals with NIH 3T3 cells. In words: Cellular distribution of microinjected sensor in live cells. The conditions noted are these: FIG. 6. The class given is cell-based. The protocol: as §5, §6
Where [7] appears, read: POPC/POPS/PtdIns(3,4,5)P3 (77:20:3) LUVs, read-out: Kd for PtdIns(3,4,5)P3.
Where [8] appears, read: POPC/POPS/PtdIns(3,4)P2 (77:20:3) LUVs, read-out: Kd for PtdIns(3,4)P2.

Where two headings read alike, the source gives them in different places. Some results are limits rather than exact numbers.

As a reminder, the Kd is the constant that tells how readily two partners part at equilibrium. Turning to `CCCCCCCCCCCCCCCC(=O)OC[C@H](COP(=O)(O)O[C@H]1[C@H](O)[C@@H](OP(=O)(O)O)[C@H](OP(=O)(O)O)[C@@H](OP(=O)(O)O)[C@H]1O)OC(=O)CCCCCCCCCCCCCCC` [PtdIns(3,4,5)P3, phosphatidylinositol-3,4,5-trisphosphate], the Kd on PLCδ-PH (PLCδ PH domain) (setting [7]) is 480 nM; in experiment [1] (setting [7]) it was 44 nM; in experiment [2] (setting [7]), 210 nM; in experiment [3] (setting [7]), 200 nM.
As to `CCCCCCCCCCCCCCCC(=O)OC[C@H](COP(=O)(O)O[C@H]1[C@H](O)[C@@H](O)[C@H](OP(=O)(O)O)[C@@H](OP(=O)(O)O)[C@H]1O)OC(=O)CCCCCCCCCCCCCCC` [PtdIns(3,4)P2], the Kd was 350 nM on PLCδ-PH (PLCδ PH domain) (setting [8]), 50 nM in experiment [1] (setting [8]), 180 nM in experiment [2] (setting [8]) and 190 nM in experiment [3] (setting [8]).
As to insulin, in the experiment on NIH 3T3 cells [4], the “reduction in spatially averaged [PtdIns(4,5)P2]s in the plasma membrane” value is reported as around 10%.

B1: DAN-eENTH: eENTH (M10C, C96A, S4W) linked via C10 to 2-dimethylamino-6-acyl-naphthalene (DAN); PtdIns(4,5)P2 sensor (conjugate)
chain: MSTWSLRRQCKNIVHNYSEAEIKVREATSNDPWGPSSSLMSEIADLTYNVVAFSEIMSMIWKRLNDHGKNWRHVYKAMTLMEYLIKTGSERVSQQAKENMYAVQTLKDFQYVDRDGKDQGVNVREKAKQLVALLRDEDRLREERAHALKTKEKLAQTA
modifications: DAN fluorophore on Cys10; Modified ENTH domain of Epsin 1.
notes: eENTH (M10C, C96A, S4W) linked via C10 to 2-dimethylamino-6-acyl-naphthalene (DAN); PtdIns(4,5)P2 sensor
In experiment [5], B1 had a dissociation constant (Kd) above 1000 nM. For the same molecule, in the experiment on NIH 3T3 cells [6], the “cellular localization after microinjection” value is on record as “mainly enriched in the plasma membrane”.

B2: Wild Type: ENTH domain of epsin 1, amino acids 1-158, SEQ ID NO:1 (protein)
chain: MSTSSLRRQMKNIVHNYSEAEIKVREATSNDPWGPSSSLMSEIADLTYNVVAFSEIMSMIWKRLNDHGKNWRHVYKAMTLMEYLIKTGSERVSQQCKENMYAVQTLKDFQYVDRDGKDQGVNVREKAKQLVALLRDEDRLREERAHALKTKEKLAQTA
modifications: ENTH domain of Epsin 1.
In the case of B2, in experiment [5], the Kd was above 1000 nM.

B3: C96A/S4W (eENTH): engineered ENTH domain of epsin 1 with substitutions M10C, C96A, S4W, SEQ ID NO:2 (protein)
chain: MSTWSLRRQCKNIVHNYSEAEIKVREATSNDPWGPSSSLMSEIADLTYNVVAFSEIMSMIWKRLNDHGKNWRHVYKAMTLMEYLIKTGSERVSQQAKENMYAVQTLKDFQYVDRDGKDQGVNVREKAKQLVALLRDEDRLREERAHALKTKEKLAQTA
modifications: Modified ENTH domain of Epsin 1.
With B3, in experiment [5], the Kd was above 1000 nM.

The values are drawn from US8686115B2, “Compositions and methods for quantitatively monitoring lipids” (The Board of Trustees of the University of Illinois, priority 2009, dated 2014).
